Laboratory results: patent EP0557303B1, “N- (2-THENOYLMERCAPTO-3-METHYL)-BUTANOYL]-HOMOCYSTEINE THIOLACTONE, A PROCESS FOR THE PREPARATION THEREOF AND PHARMACEUTICAL COMPOSITIONS CONTAINING IT” (priority 1990, dated 1992)
pIC50: −log10 of the molar value.

Tests used:
[1] = tested on: collagenase from Clostridium Histolyticum; assay: Collagenase inhibiting activity (method of Appel, substrate N-carbobenzoxy-pro-gly-gly-L-pro-L-alanine); assay type: biochemical; conditions: collagenase type II (Sigma), collagen synthetic peptide substrate
Experimental: The proteolytic activity of collagenase from Clostridium Histolyticum (Sigma, type II) was dosed according to the method by Appel (Method in enzymatic analysis, H.U. Bergmayer Vol. 2, pp. 1058-1063; 1978) using the collagen synthetic peptide N-carbobenzoxy-pro-gly-gly-L-pro-L-alanine as the substrate.

[2] = tested on: arteriosclerotic lesions induced by the diet in the rabbit; assay: Antiarteriosclerotic activity (procedure of C.T. Cahn, diet-induced lesions); assay type: in vivo; conditions: compound given together with the diet, end of a 12 week treatment
Experimental: The antiarteriosclerotic activity was tested according to the procedure described by C.T. Cahn, Circul. Research, 43, 115, 1975. The procedure consists in verifying any protecting actions of a drug on arteriosclerotic lesions induced by the diet in the rabbit.

Row | SMILES | inhibiting activity [1] | pIC50 ([1]; read-out: IC₅₀) | cholesterol levels [2] | collagen levels in the connective tissue of the aorta intima [2] | elastin levels in the connective tissue of the aorta intima [2] | triglyceride levels [2]
1 | CC(SC(=O)c1cccs1)C(=O)NC1CCSC1=O (stereo not drawn) [MR-889, 2-(2-Thenoylthio)-N-(2',3',4',5'-tetrahydro-2'-keto-thiophen-3'-yl)propionyl amide, reference compound] | almost no inhibiting activity |  |  |  |  | 
2 | CC(C)C(SC(=O)c1cccs1)C(=O)NC1CCSC1=O (stereo not drawn) [MR-2047, N-[(2-thenoylmercapto-3-methyl)-butanoyl]-homocysteine thiolactone] |  | ~5.70 | significant reduction | significant reduction | significant reduction | significant reduction
